Test results reported in publication PMC8955854, “The Peptide Hormone CNMa Influences Egg Production in the Mosquito Aedes aegypti” (Insects, 2022).
“Also recorded” adds a separate entry of the source. Positions of bridges follow the written chain, without caps; N, C: chain ends. No end group written: not given here.

Columns and labels:
AeCNMaR-1a (AAEL024199) = AeCNMaR-1a (AAEL024199) (Aedes aegypti, UniProt A0A6I8U3V2); experiment: Receptor activation, aequorin luminescence in CHO-K1 aeq cells expressing AeCNMaR-1a; format: cell-based
Sequence of AeCNMaR-1a (AAEL024199) (A0A6I8U3V2 entry or part of it): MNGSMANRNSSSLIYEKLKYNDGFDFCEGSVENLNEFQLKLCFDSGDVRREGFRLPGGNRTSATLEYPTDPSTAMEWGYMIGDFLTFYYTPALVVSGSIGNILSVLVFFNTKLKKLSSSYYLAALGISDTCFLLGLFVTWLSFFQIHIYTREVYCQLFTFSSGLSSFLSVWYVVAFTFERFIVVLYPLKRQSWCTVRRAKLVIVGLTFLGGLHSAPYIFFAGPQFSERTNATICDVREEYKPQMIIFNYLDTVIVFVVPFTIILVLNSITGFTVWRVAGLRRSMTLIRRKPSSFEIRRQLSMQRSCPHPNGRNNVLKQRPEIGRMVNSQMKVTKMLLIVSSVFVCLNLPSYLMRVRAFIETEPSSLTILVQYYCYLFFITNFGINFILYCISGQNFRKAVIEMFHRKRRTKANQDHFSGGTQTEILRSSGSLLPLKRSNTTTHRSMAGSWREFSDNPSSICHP
Source text: The CNMa peptide was synthesized and HPLC purified (>90% purity) by Royobiotechs (Shanghai, China) based on the published sequence of the AeCNMa peptide sequence. Both the amidated (YMSLCHFKLCNMa) and the non-amidated (YMSLCHFKLCNM) were produced with a disulfide bridge between cysteines 5 and 10. The complete coding sequence of the two putative Ae. aegypti CNMa receptors (VectorBase genes AAEL024199 and AAEL018316, which we henceforth refer to as AeCNMaR-1a and AeCNMaR-1b, respectively) were commercially synthesized (Integrated DNA Technologies) and subsequently subcloned into a pcDNA3.1+ mammalian expression vector [24]. A Chinese hamster ovary cell line stably expressing the calcium-dependent bioluminescent protein aequorin (CHO-K1 aeq) was grown in Dulbecco’s modified eagles medium: nutrient F12 (DMEM:F12) media containing 10% heat-inactivated fetal bovine serum (FBS; Wisent, St. Bruno, QC, Canada), 200 μg/mL geneticin, and an antimycotic-antibiotic mixture as described previously. When cells reached 80–90% confluency, they were transfected using Lipofectamine 3000 transfection reagent following manufacturer recommendations (Life Technologies, Burlington, ON, Canada) to transiently express a mammalian construct in pcDNA3.1+ containing either of the two candidate CNMa receptors or mCherry (pcDNA3.1+ mCherry was a gift from Scott Gradia, Addgene plasmid #30125), the latter of which served as a negative control for the receptor functional assay. After 48 h following transfection, CHO-K1 aeq cells were harvested by dislodging from culture flasks using Dulbecco’s PBS containing EDTA and subsequently resuspended in receptor assay media.
Other Ae. aegypti peptides used in this study included “capability” (CAPA)-1 (GPTVGLFAFPRV-NH2), CAPA-2 (pQGLVPFPRV-NH2), AedaeCAPA-pyrokinin (PK) 1 (AGNSGANSGMWFGPRL-NH2), adipokinetic/corazonin-like peptide (ACP; pQVTFSRDWNA-NH2), adipokinetic hormone (AKH) (pQLTFTPSW-NH2), and corazonin (CRZ; pQTFQYSRGWTN-NH2). Serial dilutions of the peptide stocks were prepared in bovine serum albumin (BSA) assay media (DMEM:F12 media + 0.1% BSA + 1× antibiotic-antimycotic) to test concentrations ranging from 10 pM to 50 μM. Single concentrations of the various peptides were loaded into individual wells of white 96-well luminescence plates (Greiner Bio-One, Frickenhausen, Germany) with each peptide concentration tested in quadruplicate. CHO-K1 aeq cells expressing either of the two AeCNMa receptors or mCherry were prepared for the functional assay, as described above, and injected into each well of the 96-well luminescence plates by an automated injector unit integrated with the Synergy 2 Multi-Mode Microplate Reader (BioTek, Winooski, VT, USA). The kinetic luminescent response was measured for 10 s immediately following the application of the cells into the wells containing the different peptide treatments or the negative (i.e., BSA media alone) or positive (i.e., 50 μM ATP) controls as described previously. Data was assembled in Microsoft Excel and then analyzed in GraphPad Prism 7.02 (GraphPad Software, San Diego, CA, USA) where the dose–response curves from multiple biological replicates were used to determine the half maximal effective concentrations (EC50).

AeCNMaR-1b (AAEL018316) = AeCNMaR-1b (AAEL018316) (Aedes aegypti, UniProt A0A1S4G7J8); experiment: Receptor activation, aequorin luminescence in CHO-K1 aeq cells expressing AeCNMaR-1b; format: cell-based
Sequence of AeCNMaR-1b (AAEL018316) (A0A1S4G7J8 entry or part of it): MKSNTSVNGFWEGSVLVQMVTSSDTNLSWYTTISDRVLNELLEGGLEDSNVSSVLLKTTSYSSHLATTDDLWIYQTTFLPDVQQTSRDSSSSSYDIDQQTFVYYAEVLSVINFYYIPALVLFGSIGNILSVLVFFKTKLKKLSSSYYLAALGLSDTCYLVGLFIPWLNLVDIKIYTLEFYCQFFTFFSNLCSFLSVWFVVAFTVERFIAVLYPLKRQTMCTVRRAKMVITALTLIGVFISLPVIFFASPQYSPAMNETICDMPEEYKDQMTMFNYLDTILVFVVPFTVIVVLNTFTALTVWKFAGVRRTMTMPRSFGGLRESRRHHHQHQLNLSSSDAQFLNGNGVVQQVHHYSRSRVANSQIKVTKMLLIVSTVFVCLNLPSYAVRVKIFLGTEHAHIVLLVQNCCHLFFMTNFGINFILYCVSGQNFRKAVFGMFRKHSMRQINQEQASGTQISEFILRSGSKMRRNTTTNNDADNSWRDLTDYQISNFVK
Source text: The CNMa peptide was synthesized and HPLC purified (>90% purity) by Royobiotechs (Shanghai, China) based on the published sequence of the AeCNMa peptide sequence. Both the amidated (YMSLCHFKLCNMa) and the non-amidated (YMSLCHFKLCNM) were produced with a disulfide bridge between cysteines 5 and 10. The complete coding sequence of the two putative Ae. aegypti CNMa receptors (VectorBase genes AAEL024199 and AAEL018316, which we henceforth refer to as AeCNMaR-1a and AeCNMaR-1b, respectively) were commercially synthesized (Integrated DNA Technologies) and subsequently subcloned into a pcDNA3.1+ mammalian expression vector [24]. A Chinese hamster ovary cell line stably expressing the calcium-dependent bioluminescent protein aequorin (CHO-K1 aeq) was grown in Dulbecco’s modified eagles medium: nutrient F12 (DMEM:F12) media containing 10% heat-inactivated fetal bovine serum (FBS; Wisent, St. Bruno, QC, Canada), 200 μg/mL geneticin, and an antimycotic-antibiotic mixture as described previously. […]
Other Ae. aegypti peptides used in this study included “capability” (CAPA)-1 (GPTVGLFAFPRV-NH2), CAPA-2 (pQGLVPFPRV-NH2), AedaeCAPA-pyrokinin (PK) 1 (AGNSGANSGMWFGPRL-NH2), adipokinetic/corazonin-like peptide (ACP; pQVTFSRDWNA-NH2), adipokinetic hormone (AKH) (pQLTFTPSW-NH2), and corazonin (CRZ; pQTFQYSRGWTN-NH2). […] Single concentrations of the various peptides were loaded into individual wells of white 96-well luminescence plates (Greiner Bio-One, Frickenhausen, Germany) with each peptide concentration tested in quadruplicate. CHO-K1 aeq cells expressing either of the two AeCNMa receptors or mCherry were prepared for the functional assay, as described above, and injected into each well of the 96-well luminescence plates by an automated injector unit integrated with the Synergy 2 Multi-Mode Microplate Reader (BioTek, Winooski, VT, USA). The kinetic luminescent response was measured for 10 s immediately following the application of the cells into the wells containing the different peptide treatments or the negative (i.e., BSA media alone) or positive (i.e., 50 μM ATP) controls as described previously. Data was assembled in Microsoft Excel and then analyzed in GraphPad Prism 7.02 (GraphPad Software, San Diego, CA, USA) where the dose–response curves from multiple biological replicates were used to determine the half maximal effective concentrations (EC50).

[1] = tested on: Ae. aegypti females (decapitated); experiment: Yolk deposition in blood-fed decapitated females; format: in vivo, Aedes aegypti
Method: (§1) Three- to five-day-old mated females were blood-fed as detailed above, and groups were injected with a range of CNMa in 0.5 μL of saline or saline alone (AS) for a control. Females were allowed to recover and then housed individually in mesh cages. At 3 d PBM, a wet paper towel was provided to the females to facilitate egg laying for up to 48 h and then the number of eggs was counted. To assess possible interactions of CNMa with OEH and ILP3, mated females were blood-fed then decapitated and injected at 1 h PBM with 150 pmol of CNMa, OEH, or ILP3, or combinations of each hormone. Ovaries were dissected at 24 h PBM and yolk deposition was measured along the anterior–posterior axis for five oocytes from each individual, using an ocular micrometer fitted to a dissecting microscope. For CNMa and JH experiments, pupae were isolated in eclosion chambers for 6 h and females were collected. Females were divided into two groups, one which was immediately injected with 150 pmol of CNMa or saline. The other half of the cohort was held for an additional 8 h then injected with the same solutions. At 3 d post-eclosion, females were blood-fed and oviposition was measured for all treatment groups.
Average amount of yolk per oocyte in mated, blood fed, decapitated females injected with combinations of CNMa (150 pmol), ILP3 (20 pmol), and OEH (20 pmol), Aedes saline (AS), or not injected (intact or decapitation only) at one-hour post blood meal. Error bars show one standard error above and below the mean.

[2] = tested on: ecdysteroid-responsive gene e74; experiment: e74 transcript abundance (qPCR) after injection into females; format: in vivo, Aedes aegypti; details: CNMa or saline injected females, qPCR relative to AS-treated, MANOVA e74: F3,19 = 0.8192, p = 0.50
Method: (§2) Cohorts of female Ae. aegypti were sampled 8 to 10 days post-eclosion, pre-blood meal (NBF), then at 2, 4, 6, 8, 12, 24, 48, and 72 h PBM. Four or more females from each timepoint were dissected in cold, RNase-free PBS into head, midgut, ovaries, and abdominal body wall and fat body (“pelt”). Tissue samples were immediately frozen and stored at −80 °C. Tissues were thawed on ice, homogenized with a rotor type pestle, and then total RNA was extracted using the RNeasy Mini kit (Qiagen, Venlo, The Netherlands) according to the manufacturer’s instructions. RNA was treated with DNase using the Turbo DNA-free kit (Ambion, Austin, TX, USA). cDNA was synthesized from 100 ng of RNA with the iScript cDNA synthesis kit (BioRad, Hercules, CA, USA) and used as template in qPCR using the Quantifast SYBR Green PCR kit (Qiagen). The primers for each product are listed in Table S1. qPCR was performed on the Qiagen Rotorgene as described in [28]. Absolute standard curves were produced by cloning each qPCR product into the pSCA vector using the Strataclone PCR cloning kit (Agilent, Santa Clara, CA, USA) and preparing plasmid standards of a known copy number. For comparisons between mating status, the copy number of each target was normalized to the copy number of ribosomal protein S7.
(§3) For e74, expression is relative to e74 expression in AS-treated insects.

[3] = tested on: CHO K1 aeq mCherry-expressing cells; experiment: Negative control: luminescence in CHO-K1 aeq cells expressing mCherry; format: cell-based, Chinese hamster; details: 1 µM peptide; CHO K1 aeq cells transfected with pcDNA3.1+ mCherry
Source text: The CNMa peptide was synthesized and HPLC purified (>90% purity) by Royobiotechs (Shanghai, China) based on the published sequence of the AeCNMa peptide sequence. Both the amidated (YMSLCHFKLCNMa) and the non-amidated (YMSLCHFKLCNM) were produced with a disulfide bridge between cysteines 5 and 10. The complete coding sequence of the two putative Ae. aegypti CNMa receptors (VectorBase genes AAEL024199 and AAEL018316, which we henceforth refer to as AeCNMaR-1a and AeCNMaR-1b, respectively) were commercially synthesized (Integrated DNA Technologies) and subsequently subcloned into a pcDNA3.1+ mammalian expression vector [24]. […]
Other Ae. aegypti peptides used in this study included “capability” (CAPA)-1 (GPTVGLFAFPRV-NH2), CAPA-2 (pQGLVPFPRV-NH2), AedaeCAPA-pyrokinin (PK) 1 (AGNSGANSGMWFGPRL-NH2), adipokinetic/corazonin-like peptide (ACP; pQVTFSRDWNA-NH2), adipokinetic hormone (AKH) (pQLTFTPSW-NH2), and corazonin (CRZ; pQTFQYSRGWTN-NH2). […] Single concentrations of the various peptides were loaded into individual wells of white 96-well luminescence plates (Greiner Bio-One, Frickenhausen, Germany) with each peptide concentration tested in quadruplicate. […]

[4] = tested on: JH-responsive gene kruppel-homolog 1 (kh-1); experiment: kh-1 transcript abundance (qPCR) after injection into females; format: in vivo, Aedes aegypti; details: CNMa or saline injected females
Method: as §2, §3

Ae. aegypti females = experiment: Egg laying after injection into mated, blood-fed females; format: in vivo, Aedes aegypti
Method: as §1
Figure 5 AeCNMa reduces egg clutch size in mated Ae. aegypti females. […] After three days females were allowed to oviposit and eggs were counted 48 h later. […]

Row | Substance | EC50 (AeCNMaR-1a (AAEL024199); CHO-K1 aeq cells, transient AeCNMaR-1a, luminescence over 10 s, 10 pM to 50 μM, quadruplicate, normalized to 50 µM AeCNMa, BSA assay media, read-out: EC50) [nM] | EC50 (AeCNMaR-1b (AAEL018316); CHO-K1 aeq cells, transient AeCNMaR-1b, luminescence over 10 s, 10 pM to 50 μM, quadruplicate, normalized to 50 µM AeCNMa, BSA assay media, read-out: EC50) [nM] | lower concentration activating AeCNMaR-1a than AeCNMaR-1b (AeCNMaR-1a (AAEL024199); AeCNMaR-1a vs AeCNMaR-1b) | increase in sensitivity for the amidated peptide (AeCNMaR-1a (AAEL024199); AeCNMaR-1a, amidated AeCNMa vs non-amidated AeCNM) [fold] | luminescent response vs BSA media background (AeCNMaR-1a (AAEL024199); AeCNMaR-1a, peptides tested at 1 µM, raw luminescence, one-way ANOVA and Dunnett's test) | yolk uptake, CNMa only ([1]; CNMa 150 pmol at 1 h post blood meal, decapitated females, vs decapitated only and AS control, Tukey's HSD) | yolk uptake, CNMa and ILP3 ([1]; CNMa 150 pmol, ILP3 20 pmol at 1 h post blood meal, vs ILP3 only and ILP3 and OEH, Tukey's HSD) | yolk uptake, CNMa + OEH + ILP3 ([1]; CNMa 150 pmol, ILP3 20 pmol, OEH 20 pmol at 1 h post blood meal, vs ILP3 + OEH injected females, Tukey's HSD) | yolk uptake, OEH + CNMa ([1]; CNMa 150 pmol, OEH 20 pmol at 1 h post blood meal, vs OEH only or OEH + ILP3, Tukey's HSD) | effect on yolk deposition elicited by OEH, ILP3, or both peptides together ([1]; decapitated blood-fed females, co-injection) | e74 expression vs saline [2] | e74 expression vs saline ([2]; listed as CNMa) | greater sensitivity for the amidated peptide (AeCNMaR-1b (AAEL018316); AeCNMaR-1b, amidated AeCNMa vs non-amidated AeCNM) [fold] | luminescent response vs BSA media background (AeCNMaR-1b (AAEL018316); AeCNMaR-1b, peptides tested at 1 µM, raw luminescence, one-way ANOVA and Dunnett's test) | luminescence in mCherry-expressing control cells [3] | kh-1 expression vs saline ([4]; MANOVA kh-1: F1,20 = 0.5141, p = 0.68) | kh-1 expression vs saline ([4]; MANOVA kh-1: F1,20 = 0.5141, p = 0.68, listed as CNMa) | number of eggs laid vs controls (Ae. aegypti females; 150 pmol injected immediately post blood meal, mated, eggs counted after 3 d + 48 h oviposition, control Aedes saline (AS)) | optimal dose (dose-response assay) (Ae. aegypti females; injection into mated) [pmol]
1 | YMSLCHFKLCNMa (disulfide) (YMSLCHFKLCNM-NH2; disulfide 5-10; N-terminus assumed; SMILES CSCC[C@H](NC(=O)[C@H](CC(N)=O)NC(=O)[C@@H]1CSSC[C@H](NC(=O)[C@H](CC(C)C)NC(=O)[C@H](CO)NC(=O)[C@H](CCSC)NC(=O)[C@@H](N)Cc2ccc(O)cc2)C(=O)N[C@@H](Cc2c[nH]cn2)C(=O)N[C@@H](Cc2ccccc2)C(=O)N[C@@H](CCCCN)C(=O)N[C@@H](CC(C)C)C(=O)N1)C(N)=O) [AeCNMa, Ae. aegypti CNMa peptide, amidated, HPLC purified (>90% purity)] | 5.17 | 51.8 |  |  |  |  |  |  |  |  |  |  |  |  |  |  |  |  | 
2 | YMSLCHFKLCNMa (disulfide) [AeCNMa, Ae. aegypti CNMa peptide, amidated, HPLC purified (>90% purity)] |  |  | ~ 10 fold | 9 | significant response several orders of magnitude over the BSA media background luminescent response | not significantly different from decapitated only and AS control treatments | no significant difference in yolk uptake | no significant difference in yolk uptake | no significant difference in yolk uptake relative to OEH only or OEH + ILP3 treatments | did not affect yolk deposition elicited by OEH, ILP3, or both peptides together | no significant difference in their expression | did not significantly impact expression | 2.4 | significant response several orders of magnitude over the BSA media background luminescent response | No luminescence was detected | no significant difference in their expression | did not significantly impact expression | laid significantly fewer eggs than controls; also recorded: produced significantly fewer eggs than controls (p = 0.0087, Wilcoxon rank-sum test) | 150
